The molecules below were run against T1, indoleamine 2, 3-dioxygenase (IDO1) (Homo sapiens, UniProt P14902) (assay: PBMC IDO1 assay (kynurenine detection via mass spectrometry)). Conditions: human PBMC stimulated with IFN-γ and LPS, 2 days, kynurenine by mass spectrometry; read-out: IDO1 PBMC pIC50 (converted).
T1 construct: human peripheral blood mononuclear cells (PBMC) (PB003F; host or cells: human PBMC stimulated with IFN-gamma and LPS
Type: cell-based
In short: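 Human PBMCs (50,000/well) stimulated with IFN-γ 100 ng/ml and LPS 50 ng/ml were exposed to 11-point 3-fold compound dilutions for 2 days at 37 °C. Supernatant kynurenine was quantified by RapidFire MS relative to an internal standard; parallel CellTiter-Glo ATP luminescence measured cytotoxicity, with four-parameter curve fitting.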

T1 sequence (P14902 whole entry): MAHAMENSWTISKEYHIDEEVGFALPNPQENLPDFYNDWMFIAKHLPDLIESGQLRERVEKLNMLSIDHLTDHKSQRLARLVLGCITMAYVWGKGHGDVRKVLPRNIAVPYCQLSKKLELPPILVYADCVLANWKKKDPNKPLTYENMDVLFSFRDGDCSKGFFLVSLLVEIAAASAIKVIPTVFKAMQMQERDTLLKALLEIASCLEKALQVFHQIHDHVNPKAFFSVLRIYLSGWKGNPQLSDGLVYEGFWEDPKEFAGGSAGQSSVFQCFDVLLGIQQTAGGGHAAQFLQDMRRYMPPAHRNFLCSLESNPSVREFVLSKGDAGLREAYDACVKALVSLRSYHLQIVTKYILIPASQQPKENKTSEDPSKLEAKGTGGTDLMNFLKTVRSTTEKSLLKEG

| IC50 [nM] | SMILES |
| --- | --- |
| 398 | CC(C)(C)OC(=O)N1CCC(CC(NC(=O)C2CCCCCC2)c2ccccc2)CC1 (centres unmarked) [Example 209, tert-butyl 4-(2-(cycloheptanecarboxamido)-2-phenylethyl)piperidine-1-carboxylate] |
| 398 | CC(C)(C)CC(=O)NC(CC1CCN(C(=O)OC(C)(C)C)CC1)c1ccccc1 (centres unmarked) [Example 210, tert-butyl 4-(2-(3,3-dimethylbutanamido)-2-phenylethyl)piperidine-1-carboxylate] |
| 398 | CC(C)(C)OC(=O)N1CCC(CC(NC(=O)c2cc(F)ccc2F)c2ccccc2)CC1 (centres unmarked) [Example 211, tert-butyl 4-(2-(2,5-difluorobenzamido)-2-phenylethyl)piperidine-1-carboxylate] |
| 398 | CC(C)c1ccc(C(=O)NC(CC2CCN(C(=O)OC(C)(C)C)CC2)c2ccccc2)cc1 (centres unmarked) [Example 212, tert-butyl 4-(2-(4-isopropylbenzamido)-2-phenylethyl)piperidine-1-carboxylate] |
| 398 | Cc1cc(C(=O)NC(CC2CCN(C(=O)OC(C)(C)C)CC2)c2ccccc2)ccc1F (centres unmarked) [Example 213, tert-butyl 4-(2-(4-fluoro-3-methylbenzamido)-2-phenylethyl)piperidine-1-carboxylate] |
| 398 | CC(C)(C)OC(=O)N1CCC(C[C@@H](NC(=O)c2ccc(Cl)s2)C2CC2)CC1 [Example 214, (R)-tert-butyl 4-(2-(5-chlorothiophene-2-carboxamido)-2-cyclopropylethyl)piperidine-1-carboxylate] |
| 398 | O=C(NC(CC1CCN(S(=O)(=O)c2ccccc2)CC1)c1ccccc1)c1ccc(Cl)cc1 (centres unmarked) [Example 215, 4-chloro-N-(1-phenyl-2-(1-(phenylsulfonyl)piperidin-4-yl)ethyl)benzamide] |
| 501 | COc1cccc(C(=O)NC(CC2CCN(C(=O)OC(C)(C)C)CC2)c2ccccc2)c1 (centres unmarked) [Example 216, tert-butyl 4-(2-(3-methoxybenzamido)-2-phenylethyl)piperidine-1-carboxylate] |
| 501 | Cc1ccc(C(=O)NC(CC2CCN(C(=O)OC(C)(C)C)CC2)c2ccccc2)cn1 (centres unmarked) [Example 217, tert-butyl 4-(2-(6-methylnicotinamido)-2-phenylethyl)piperidine-1-carboxylate] |
| 501 | Cc1ccc(C(=O)NC(CC2CCN(C(=O)OC(C)(C)C)CC2)c2ccccc2)c(F)c1 (centres unmarked) [Example 218, tert-butyl 4-(2-(2-fluoro-4-methylbenzamido)-2-phenylethyl)piperidine-1-carboxylate] |
| 501 | CC(C)(C)OC(=O)N1CCC(CC(NC(=O)c2ccccc2F)c2ccccc2)CC1 (centres unmarked) [Example 219, tert-butyl 4-(2-(2-fluorobenzamido)-2-phenylethyl)piperidine-1-carboxylate] |
| 501 | CC(C)(C)OC(=O)N1CCC(CC(NC(=O)c2ccc[nH]2)c2ccccc2)CC1 (centres unmarked) [Example 220, tert-butyl 4-(2-phenyl-2-(1H-pyrrole-2-carboxamido)ethyl)piperidine-1-carboxylate] |
| 501 | CC(C)(C)OC(=O)N1CCC(CC(NC(=O)c2ccc(F)cc2)c2nnc(C3CC3)o2)CC1 (centres unmarked) [Example 221, tert-butyl 4-(2-(5-cyclopropyl-1,3,4-oxadiazol-2-yl)-2-(4-fluorobenzamido)ethyl)piperidine-1-carboxylate] |
| 501 | CC(=O)N1CCC(CC(NC(=O)c2ccc(Cl)cc2)c2ccccc2)CC1 (centres unmarked) [Example 222, N-(2-(1-acetylpiperidin-4-yl)-1-phenylethyl)-4-chlorobenzamide] |
| 501 | CC(C)c1nnc(C(CC2CCN(C(=O)OC(C)(C)C)CC2)NC(=O)c2ccc(F)cc2)o1 (centres unmarked) [Example 223, tert-butyl 4-(2-(4-fluorobenzamido)-2-(5-isopropyl-1,3,4-oxadiazol-2-yl)ethyl)piperidine-1-carboxylate] |

The remaining lines, values behind:

| SMILES | IC50 [nM] |
| --- | --- |
| O=C(NC(CC1CCN(C(=O)OC2CCOCC2)CC1)c1ccccc1)c1ccc(Cl)cc1 (centres unmarked) [Example 186, tetrahydro-2H-pyran-4-yl 4-(2-(4-chlorobenzamido)-2-phenylethyl)piperidine-1-carboxylate] | 158 |
| CC(C)(C)COC(=O)N1CCC(CC(NC(=O)c2ccc(Cl)cc2)c2ccccc2)CC1 (centres unmarked) [Example 187, neopentyl 4-(2-(4-chlorobenzamido)-2-phenylethyl)piperidine-1-carboxylate] | 158 |
| CC(C)OC(=O)N1CCC(C[C@@H](NC(=O)c2ccc(Cl)s2)C2CC2)CC1 [Example 188, (R)-isopropyl 4-(2-(5-chlorothiophene-2-carboxamido)-2-cyclopropylethyl)piperidine-1-carboxylate] | 158 |
| CC(C)(C)OC(=O)N1CCC(CC(NC(=O)c2ccc(C#N)nc2)c2ccccc2)CC1 (centres unmarked) [Example 189, tert-butyl 4-(2-(6-cyanonicotinamido)-2-phenylethyl)piperidine-1-carboxylate] | 200 |
| CC(C)(C)OC(=O)N1CCC(CC(NC(=O)C2CCCCC2)c2ccccc2)CC1 (centres unmarked) [Example 190, tert-butyl 4-(2-(cyclohexanecarboxamido)-2-phenylethyl)piperidine-1-carboxylate] | 200 |
| Cc1ncc(C(=O)NC(CC2CCN(C(=O)OC(C)(C)C)CC2)c2ccccc2)s1 (centres unmarked) [Example 191, tert-butyl 4-(2-(2-methylthiazole-5-carboxamido)-2-phenylethyl)piperidine-1-carboxylate] | 200 |
| CCCOc1ccc(C(=O)NC(CC2CCN(C(=O)OC(C)(C)C)CC2)c2ccccc2)cc1 (centres unmarked) [Example 192, tert-butyl 4-(2-phenyl-2-(4-propoxybenzamido)ethyl)piperidine-1-carboxylate] | 200 |
| O=C(NC(CC1CCN(S(=O)(=O)C2CCCC2)CC1)c1ccccc1)c1ccc(Cl)cc1 (centres unmarked) [Example 193, 4-chloro-N-(2-(1-(cyclopentylsulfonyl)piperidin-4-yl)-1-phenylethyl)benzamide] | 200 |
| CC(C)(C)OC(=O)N1CCC(CC(NC(=O)c2ccccc2O)c2ccccc2)CC1 (centres unmarked) [Example 194, tert-butyl 4-(2-(2-hydroxybenzamido)-2-phenylethyl)piperidine-1-carboxylate] | 251 |
| CC(C)(C)OC(=O)N1CCC(CC(NC(=O)c2ccc(O)cc2)c2ccccc2)CC1 (centres unmarked) [Example 195, tert-butyl 4-(2-(4-hydroxybenzamido)-2-phenylethyl)piperidine-1-carboxylate] | 251 |
| CC(C)(C)OC(=O)N1CCC(CC(NC(=O)c2ccc(O)c(F)c2)c2ccccc2)CC1 (centres unmarked) [Example 196, tert-butyl 4-(2-(3-fluoro-4-hydroxybenzamido)-2-phenylethyl)piperidine-1-carboxylate] | 251 |
| O=C(NC(CC1CCN(S(=O)(=O)N2CCCCC2)CC1)c1ccccc1)c1ccc(Cl)cc1 (centres unmarked) [Example 197, 4-chloro-N-(1-phenyl-2-(1-(piperidin-1-ylsulfonyl)piperidin-4-yl)ethyl)benzamide] | 251 |
| CC(C)(C)OC(=O)N1CCC(CC(NC(=O)c2ccc(F)cc2)c2nc(C3CCCC3)no2)CC1 (centres unmarked) [Example 198, tert-butyl 4-(2-(3-cyclopentyl-1,2,4-oxadiazol-5-yl)-2-(4-fluorobenzamido)ethyl)piperidine-1-carboxylate] | 251 |
| CC(C)(C)OC(=O)N1CCC(CC(NC(=O)c2cccc(Cl)c2)c2ccccc2)CC1 (centres unmarked) [Example 199, tert-butyl 4-(2-(3-chlorobenzamido)-2-phenylethyl)piperidine-1-carboxylate] | 316 |
| CC(C)(C)OC(=O)N1CCC(CC(NC(=O)Nc2ccc(F)cc2)c2ccccc2)CC1 (centres unmarked) [Example 200, tert-butyl 4-(2-(3-(4-fluorophenyl)ureido)-2-phenylethyl)piperidine-1-carboxylate] | 316 |
| CC(C)(C)OC(=O)N1CCC(CC(NC(=O)C23CCC(CC2)CC3)c2ccccc2)CC1 (centres unmarked) [Example 201, tert-butyl 4-(2-(bicyclo[2.2.2]octane-1-carboxamido)-2-phenylethyl)piperidine-1-carboxylate] | 316 |
| COCCOc1ccc(C(CC2CCN(C(=O)OC(C)(C)C)CC2)NC(=O)c2ccc(F)cc2)cn1 (centres unmarked) [Example 202, tert-butyl 4-(2-(4-fluorobenzamido)-2-(6-(2-methoxyethoxy)pyridin-3-yl)ethyl)piperidine-1-carboxylate] | 316 |
| CC(C)(C)OC(=O)N1CCC(CC(NC(=O)c2ccc(F)c(Cl)c2)c2ccccc2)CC1 (centres unmarked) [Example 203, tert-butyl 4-(2-(3-chloro-4-fluorobenzamido)-2-phenylethyl)piperidine-1-carboxylate] | 316 |
| Cc1ccc(C(=O)NC(CC2CCN(C(=O)OC(C)(C)C)CC2)c2ccccc2)o1 (centres unmarked) [Example 204, tert-butyl 4-(2-(5-methylfuran-2-carboxamido)-2-phenylethyl)piperidine-1-carboxylate] | 316 |
| CC(C)(C)OC(=O)N1CCC(CC(NC(=O)c2ccc(Cl)c(Cl)c2)c2ccccc2)CC1 (centres unmarked) [Example 205, tert-butyl 4-(2-(3,4-dichlorobenzamido)-2-phenylethyl)piperidine-1-carboxylate] | 316 |
| COC(=O)N1CCC(C[C@@H](NC(=O)c2ccc(Cl)s2)C2CC2)CC1 [Example 206, (R)-methyl 4-(2-(5-chlorothiophene-2-carboxamido)-2-cyclopropylethyl)piperidine-1-carboxylate] | 316 |
| CC(C)(C)OC(=O)N1CCC(CC(NC(=O)c2ccc(F)cc2)c2cccnc2)CC1 (centres unmarked) [Example 207, tert-butyl 4-(2-(4-fluorobenzamido)-2-(pyridin-3-yl)ethyl)piperidine-1-carboxylate] | 398 |
| CC(C)(C)OC(=O)N1CCC(CC(NC(=O)c2ccc(F)cc2)c2ccncc2)CC1 (centres unmarked) [Example 208, tert-butyl 4-(2-(4-fluorobenzamido)-2-(pyridin-4-yl)ethyl)piperidine-1-carboxylate] | 398 |
